Key:
late watergrass = test: Test Example 2: herbicidal activity, application during weed generation under submerged conditions (Table 17, symbol A); format: in vivo, late watergrass (Echinochloa oryzicola); details: AAH 178 g/ha; application during weed generation, submerged conditions
In short: (§1)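 In this pot test, flooded alluvial soil (water depth 4 cm) holds all three species sown as a mixture. Once seedlings have one to two leaves, the compound's emulsion, thinned with water to the intended dose, is poured on the water; grading follows after three weeks on the earlier criteria.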

Japanese bulrush = test: Test Example 2: herbicidal activity, application during weed generation under submerged conditions (Table 17, symbol B); format: in vivo, Japanese bulrush (Schoenoplectus juncoides); details: AAH 178 g/ha; application during weed generation, submerged conditions
In short: as §1

oval-leafed pondweed = test: Test Example 2: herbicidal activity, application during weed generation under submerged conditions (Table 17, symbol C); format: in vivo, oval-leafed pondweed (Monochoria vaginalis); details: AAH 178 g/ha; application during weed generation, submerged conditions
In short: as §1

barnyard grass [1] = test: Test Example 3: herbicidal effect by foliage application, Wagner pot (Table 18, symbol H); format: in vivo, barnyard grass (Echinochloa crus-galli); details: 178 g/ha
In short: (§2)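 Plants were sown in alluvial soil held under 0.1–0.5 cm standing water and grown 14 days in a greenhouse at 25–30 °C. An emulsifiable formulation, water-diluted to the set dose, was then sprayed onto the foliage, and effects were scored three weeks later using previously defined criteria.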

Chinese sprangletop = test: Test Example 3: herbicidal effect by foliage application, Wagner pot (Table 18, symbol D); format: in vivo, chinese sprangletop (Leptochloa chinensis); details: 178 g/ha
In short: as §2

rice flat sedge = test: Test Example 3: herbicidal effect by foliage application, Wagner pot (Table 18, symbol E); format: in vivo, rice flat sedge (Cyperus iria); details: 178 g/ha
In short: as §2

southern crabgrass [2] = test: Test Example 4: herbicidal effect by soil treatment (Table 19, symbol F); format: in vivo, southern crabgrass (Digitaria ciliaris); details: AAH 178 g/ha
In short: (§3)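 Herbicidal effect was rated 3 weeks after treatment, using the scoring criteria of an earlier test. The compound, formulated as an emulsion and diluted in water to a set herbicide amount, had been sprayed uniformly on soil over freshly sown seeds. Growth took place in a greenhouse at 25° C. to 30° C.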

green foxtail [3] = test: Test Example 4: herbicidal effect by soil treatment (Table 19, symbol G); format: in vivo, green foxtail (Setaria viridis); details: AAH 178 g/ha
In short: as §3

barnyard grass [4] = test: Test Example 4: herbicidal effect by soil treatment (Table 19, symbol H); format: in vivo, barnyard grass (Echinochloa crus-galli); details: AAH 178 g/ha
In short: as §3

wild oat [5] = test: Test Example 4: herbicidal effect by soil treatment (Table 19, symbol I); format: in vivo, wild oat (Avena fatua); details: AAH 178 g/ha
In short: as §3

blackgrass [6] = test: Test Example 4: herbicidal effect by soil treatment (Table 19, symbol J); format: in vivo, blackgrass (Alopecurus myosuroides); details: AAH 178 g/ha
In short: as §3

Italian ryegrass [7] = test: Test Example 4: herbicidal effect by soil treatment (Table 19, symbol K); format: in vivo, Italian ryegrass (Lolium multiflorum); details: AAH 178 g/ha
In short: as §3

windgrass [8] = test: Test Example 4: herbicidal effect by soil treatment (Table 19, symbol L); format: in vivo, windgrass (Apera spica-venti); details: AAH 178 g/ha
In short: as §3

velvetleaf [9] = test: Test Example 4: herbicidal effect by soil treatment (Table 19, symbol M); format: in vivo, velvetleaf (Abutilon theophrasti); details: AAH 178 g/ha
In short: as §3

redroot pigweed = test: Test Example 4: herbicidal effect by soil treatment (Table 19, symbol N); format: in vivo, redroot pigweed (Amaranthus retroflexus); details: AAH 178 g/ha
In short: as §3

lambsquarters [10] = test: Test Example 4: herbicidal effect by soil treatment (Table 19, symbol O); format: in vivo, lambsquarters (Chenopodium album); details: AAH 178 g/ha
In short: as §3

chickweed = test: Test Example 4: herbicidal effect by soil treatment (Table 19, symbol P); format: in vivo, common chickweed (Stellaria media); details: AAH 178 g/ha
In short: as §3

false cleavers = test: Test Example 4: herbicidal effect by soil treatment (Table 19, symbol Q); format: in vivo, false cleavers (Galium spurium); details: AAH 178 g/ha
In short: as §3

persian speedwell [11] = test: Test Example 4: herbicidal effect by soil treatment (Table 19, symbol R); format: in vivo, Persian speedwell (Veronica persica); details: AAH 178 g/ha
In short: as §3

southern crabgrass [12] = test: Test Example 5: herbicidal effect by foliage application, plastic box (Table 20, symbol F); format: in vivo, southern crabgrass (Digitaria ciliaris); details: foliage application, 178 g/ha, 3 weeks after application
In short: (§4)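 Foliar spray test: emulsion formulation diluted in water to a set application rate, sprayed onto 14-day-old plants raised in diluvial soil at 25° C to 30° C under glass. Both herbicidal effect and crop effect rated visually three weeks later.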

green foxtail [13] = test: Test Example 5: herbicidal effect by foliage application, plastic box (Table 20, symbol G); format: in vivo, green foxtail (Setaria viridis); details: foliage application, 178 g/ha, 3 weeks after application
In short: as §4

barnyard grass [14] = test: Test Example 5: herbicidal effect by foliage application, plastic box (Table 20, symbol H); format: in vivo, barnyard grass (Echinochloa crus-galli); details: foliage application, 178 g/ha, 3 weeks after application
In short: as §4

wild oat [15] = test: Test Example 5: herbicidal effect by foliage application, plastic box (Table 20, symbol I); format: in vivo, wild oat (Avena fatua); details: foliage application, 178 g/ha, 3 weeks after application
In short: as §4

blackgrass [16] = test: Test Example 5: herbicidal effect by foliage application, plastic box (Table 20, symbol J); format: in vivo, blackgrass (Alopecurus myosuroides); details: foliage application, 178 g/ha, 3 weeks after application
In short: as §4

Italian ryegrass [17] = test: Test Example 5: herbicidal effect by foliage application, plastic box (Table 20, symbol K); format: in vivo, Italian ryegrass (Lolium multiflorum); details: foliage application, 178 g/ha, 3 weeks after application
In short: as §4

windgrass [18] = test: Test Example 5: herbicidal effect by foliage application, plastic box (Table 20, symbol L); format: in vivo, windgrass (Apera spica-venti); details: foliage application, 178 g/ha, 3 weeks after application
In short: as §4

velvetleaf [19] = test: Test Example 5: herbicidal effect by foliage application, plastic box (Table 20, symbol M); format: in vivo, velvetleaf (Abutilon theophrasti); details: foliage application, 178 g/ha, 3 weeks after application
In short: as §4

lambsquarters [20] = test: Test Example 5: herbicidal effect by foliage application, plastic box (Table 20, symbol O); format: in vivo, lambsquarters (Chenopodium album); details: foliage application, 178 g/ha, 3 weeks after application
In short: as §4

persian speedwell [21] = test: Test Example 5: herbicidal effect by foliage application, plastic box (Table 20, symbol R); format: in vivo, Persian speedwell (Veronica persica); details: foliage application, 178 g/ha, 3 weeks after application
In short: as §4

Q: For COCCOCOc1c(C)nn(C)c(=O)c1-c1c(-c2ccc(OC(F)F)cc2)sc2ccccc12 [1-202], which “herbicidal effect rating, A: late watergrass” value (late watergrass) is on record?
A: 2 (Herbicidal rate of 20% or more and less than 40%)

Q: What about the “herbicidal effect rating, B: Japanese bulrush” value (Japanese bulrush) of the same molecule?
A: 3 (Herbicidal rate of 40% or more and less than 70%)

Q: What about the “herbicidal effect rating, C: oval-leafed pondweed” value (oval-leafed pondweed) of the same molecule?
A: 0 (Herbicidal rate of 5% or less (almost no effect))

Q: And the “herbicidal effect on H (barnyard grass), rating 0-5” value (barnyard grass [1])?
A: 5 (Herbicidal rate of 90% or more (almost completely withered))

Q: What about the “herbicidal effect on D (Chinese sprangletop), rating 0-5” value (Chinese sprangletop) of the same molecule?
A: 3 (Herbicidal rate of 40% or more and less than 70%)

Q: And the “herbicidal effect on E (rice flat sedge), rating 0-5” value (rice flat sedge)?
A: 5 (Herbicidal rate of 90% or more (almost completely withered))

Q: What about the “F: southern crabgrass, herbicidal effect rating” value (southern crabgrass [2]) of the same molecule?
A: 0 (Herbicidal rate of 5% or less (almost no effect))

Q: And the “G: green foxtail, herbicidal effect rating” value (green foxtail [3])?
A: 4 (Herbicidal rate of 70% or more and less than 90%)

Q: And the “H: barnyard grass, herbicidal effect rating” value (barnyard grass [4])?
A: 3 (Herbicidal rate of 40% or more and less than 70%)

Q: And the “I: wild oat, herbicidal effect rating” value (wild oat [5])?
A: 0 (Herbicidal rate of 5% or less (almost no effect))

Q: What about the “J: blackgrass, herbicidal effect rating” value (blackgrass [6]) of the same molecule?
A: 0 (Herbicidal rate of 5% or less (almost no effect))

Q: What about the “K: Italian ryegrass, herbicidal effect rating” value (Italian ryegrass [7]) of the same molecule?
A: 4 (Herbicidal rate of 70% or more and less than 90%)

Q: And the “L: windgrass, herbicidal effect rating” value (windgrass [8])?
A: 0 (Herbicidal rate of 5% or less (almost no effect))

Q: And the “M: velvetleaf, herbicidal effect rating” value (velvetleaf [9])?
A: 2 (Herbicidal rate of 20% or more and less than 40%)

Q: What about the “N: redroot pigweed, herbicidal effect rating” value (redroot pigweed) of the same molecule?
A: 5 (Herbicidal rate of 90% or more (almost completely withered))

Q: What about the “O: lambsquarters, herbicidal effect rating” value (lambsquarters [10]) of the same molecule?
A: 4 (Herbicidal rate of 70% or more and less than 90%)

Q: What about the “P: chickweed, herbicidal effect rating” value (chickweed) of the same molecule?
A: 3 (Herbicidal rate of 40% or more and less than 70%)

Q: What about the “Q: false cleavers, herbicidal effect rating” value (false cleavers) of the same molecule?
A: 3 (Herbicidal rate of 40% or more and less than 70%)

Q: What about the “R: persian speedwell, herbicidal effect rating” value (persian speedwell [11]) of the same molecule?
A: 4 (Herbicidal rate of 70% or more and less than 90%)

Q: And the “effect on southern crabgrass (F)” value (southern crabgrass [12])?
A: 1 (Herbicidal rate of 5% or more and less than 20%)

Q: And the “effect on green foxtail (G)” value (green foxtail [13])?
A: 5 (Herbicidal rate of 90% or more (almost completely withered))

Q: What about the “effect on barnyard grass (H)” value (barnyard grass [14]) of the same molecule?
A: 4 (Herbicidal rate of 70% or more and less than 90%)

Q: And the “effect on wild oat (I)” value (wild oat [15])?
A: 0 (Herbicidal rate of 5% or less (almost no effect))

Q: And the “effect on blackgrass (J)” value (blackgrass [16])?
A: 3 (Herbicidal rate of 40% or more and less than 70%)

Q: What about the “effect on Italian ryegrass (K)” value (Italian ryegrass [17]) of the same molecule?
A: 5 (Herbicidal rate of 90% or more (almost completely withered))

Q: What about the “effect on windgrass (L)” value (windgrass [18]) of the same molecule?
A: 0 (Herbicidal rate of 5% or less (almost no effect))

Q: What about the “effect on velvetleaf (M)” value (velvetleaf [19]) of the same molecule?
A: 5 (Herbicidal rate of 90% or more (almost completely withered))

Q: And the “effect on lambsquarters (O)” value (lambsquarters [20])?
A: 5 (Herbicidal rate of 90% or more (almost completely withered))

Q: And the “effect on persian speedwell (R)” value (persian speedwell [21])?
A: 5 (Herbicidal rate of 90% or more (almost completely withered))
